Assays:
[1] = system: E. chaffeensis cell-free organisms (DC and RC fractions); test: Protein synthesis by 35S-cysteine-methionine incorporation in cell-free E. chaffeensis in axenic medium; type: cell-based, Ehrlichia chaffeensis; conditions: for protein biosynthesis with different energy sources: RC form recovered from DH82 cultures, axenic medium supplemented with the carbon source, FIGS. 5A and 5B; for protein synthesis (35S Cys-Met incorporation) when inhibitor included in the media: axenic media with G6P, 24 h, renografin-purified organisms, FIG. 1
Protocol: Protein synthesis by ^35S-cysteine-methionine incorporation: Protein synthesis in cell-free purified fractions of E. chaffeensis was measured by incorporation of ^35S-Cys-Met (Perkin Elmer, Waltham, Mass.) as described by Omsland, A., et al., in Developmental stage-specific metabolic and transcriptional activity of Chlamydia trachomatis in an axenic medium. Proc Natl Acad Sci USA. […] For normalization of bacterial total protein content, the suspension of E. chaffeensis cell-free fractions were lysed in 1% (wt/vol) SDS for 5 minutes at 100° C. and the total protein concentration was determined using Protein Assay kit (Bio-Rad, Hercules, Calif.). Subsequently, the suspensions of E. chaffeensis cell-free fractions were equally split into micro-centrifuge tubes at the amount of 30 μg total protein. Partially opened micro-centrifuge tubes containing 500 μL of medium supplemented with 70 μCi of ^35S-Cys-Met were incubated at 37° C. for 24 hours in a tri-gas incubator set to maintain 2.5% O2. E. chaffeensis cell-free organisms were pelleted at the end of incubation by centrifugation at 15,000×g for 15 minutes at 4° C., washed with K-36 buffer (0.05M K2HPO4, 0.05M KH2PO4, 0.1M KCl, 0.15M NaCl, pH7.0) twice, and disrupted by adding 30 μL of 2×SDS-PAGE sample buffer and by boiling for 5 minutes. Ten μL of lysate each was then transferred to a tube containing 5 mL of biosafe liquid II and used for quantification of ^35S-Cys-Met incorporation using the protocol 4 (^35S) in a liquid scintillation counter (TRI-CARB 2100TR, PerkinElmer, Waltham, Mass.). For visualizing the radiolabel incorporation into bacterial proteins, equal volumes of sample lysates were also separated in an SDS/PAGE and the gel was dried and exposed to an X-ray film. Similarly, cell-free growth experiments were carried out in the absence of ^35S-Cys-Met, resolved on an SDS-PAGE gel, and stained using silver nitrate staining kit (Pierce/ThermoFisher Scientific) as per the manufacturer's recommendations.

[2] = system: E. chaffeensis cell-free phagosomes; test: 35S Cys-Met incorporation into cell-free phagosomes; type: cell-based, Ehrlichia chaffeensis; conditions: energy source or CHL in axenic medium
Protocol: (§1) Protein synthesis by ^35S-cysteine-methionine incorporation: Protein synthesis in cell-free purified phagosomes of A. phagocytophilum or E. chaffeensis was measured by incorporation of […] (Perkin Elmer, Waltham, Mass.) as described previously. For normalization of bacterial total protein content, the suspension of the cell-free phagosomes were lysed in 1% (wt/vol) SDS for 5 minutes at 100° C. and the total protein concentration was determined using Protein Assay kit (Bio-Rad, Hercules, Calif.). Subsequently, the suspensions of cell-free phagosomes were equally split into micro-centrifuge tubes at the amount of 30 μg total protein. Partially opened micro-centrifuge tubes containing 500 μL of medium supplemented with 70 μCi of ^35S-Cys-Met were incubated 24 hours at 37° C. in a tri-gas incubator set to maintain 2.5% O2. The cell-free organisms were pelleted at the end of incubation by centrifugation at 15,000×g for 15 minutes at 4° C., washed with K-36 buffer (0.05M K2HPO4, 0.05M KH2PO4, 0.1M KCl, 0.15M NaCl, pH7.0) twice, and disrupted by adding 30 μL of 2×SDS-PAGE sample buffer and by boiling for 5 minutes. Ten μL of lysate each was then transferred to a tube containing 5 mL of biosafe liquid II and used for quantification of ^35S-Cys-Met incorporation using the protocol 4 (^35S) in a liquid scintillation counter (TRI-CARB 2100TR, PerkinElmer, Waltham, Mass.). For visualizing the of radiolabel incorporation into phagosomes proteins, equal volumes of sample lysates were also separated in an SDS/PAGE and the gel was dried and exposed to an X-ray film. Similarly, cell-free growth experiments were carried out in the absence of added ^35S-Cys-Met, resolved on an SDS-PAGE gel and stained using silver nitrate staining kit (Pierce/ThermoFisher Scientific) as per the manufacturer's recommendations.

[3] = system: A. phagocytophilum cell-free phagosomes; test: as above; type: cell-based, Anaplasma phagocytophilum; conditions: energy source or CHL in axenic medium
Protocol: as §1

[4] = system: A. phagocytophilum cell-free phagosome; test: Protein biosynthesis by protein fractionation, silver stained SDS polyacrylamide gel; type: cell-based, Anaplasma phagocytophilum; conditions: FIGS. 15A and 15B, CHL-containing lanes
Protocol: Sodium dodecyl sulfate polyacrylamide gel electrophoresis: Five μL of NuPAGE LDS sample buffer and 2 μL of NuPAGE reducing agent (Invitrogen/ThermoFisher Scientific) were added to each of 10 μL of sample solution following cell-free incubation experiments in the axenic medium, boiled for 5 minutes, and then loaded onto a Mini-PROTEAN Precast Bis-Tris 4% to 14% gels (Bio-rad, Hercules, Calif.) and subjected to electrophoresis (100 mA/gel for 60 minutes). The gels were then stained with Silver staining kit (Pierce/ThermoFisher Scientific) according to the manufacturer's recommendations.
Western blot analysis to assess protein synthesis: For detection of the DnaK and P28 proteins of E. chaffeensis or the Dnak of A. phagocytophilum, the above described electrophoresed proteins were transferred onto a nitrocellulose membrane (Thermo Fisher Scientific, Waltham, Mass.) by subjecting to electro-blotting using an electrophoretic transfer unit (Bio-Rad). Protein transfer buffer was prepared as per the manufacturer's instructions and used in the protein transfer protocols. Subsequently, E. chaffeensis DnaK and P28 expressions were assessed using the polyclonal rabbit antisera raised against a recombinant E. chaffeensis proteins for DnaK and P28, respectively. […]

Row | Structure (SMILES) | protein biosynthesis with different energy sources [1] | incorporation of 35S Cys-Met ([2]; FIG. 12B photograph) | incorporation of 35S Cys-Met ([2]; FIG. 12D graph) | incorporation of 35S Cys-Met ([3]; FIG. 12A photograph) | incorporation of 35S Cys-Met ([3]; FIG. 12C graph) | further results
1 | O[C@H](CS)[C@H](O)CS (racemic) [DTT, Dithiothreitol] |  |  |  |  |  | impact of exclusion of reducing agent on protein biosynthesis ([1]; axenic medium with G6P, absence of DTT, RC fraction): only a marginal negative effect
2 | CC(=O)[O-].[Na+] [sodium acetate] | supported the protein biosynthesis similarly |  |  |  |  | 
3 | Nc1ncnc2c1ncn2[C@@H]1O[C@H](COP(=O)(O)OP(=O)(O)OP(=O)(O)O)[C@@H](O)[C@H]1O [ATP, adenosine triphosphate] |  | showed incorporation | showed incorporation | showed incorporation | showed incorporation | 
4 | O=C(O)CCC(=O)C(=O)O [alpha ketoglutarate] | supported the protein biosynthesis similarly |  |  |  |  | 
5 | O=C(N[C@H](CO)[C@H](O)c1ccc([N+](=O)[O-])cc1)C(Cl)Cl [CHL, chloramphenicol, reference compound] |  | no incorporation | no incorporation | no incorporation | no incorporation | protein synthesis (protein abundance, silver stained gel) [4]: no synthesis; protein synthesis (35S Cys-Met incorporation) when inhibitor included in the media [1]: abolished
6 | O=C[C@H](O)[C@@H](O)[C@H](O)[C@H](O)COP(=O)(O)O [G6P, glucose 6-phosphate] | supported the protein biosynthesis similarly | showed incorporation | showed incorporation | showed incorporation | showed incorporation | 
7 | CO[C@H]1/C=C/O[C@@]2(C)Oc3c(C)c(O)c4c(O)c(c(/C=N/N5CCN(C)CC5)c(O)c4c3C2=O)NC(=O)/C(C)=C\C=C\[C@H](C)[C@H](O)[C@@H](C)[C@@H](O)[C@@H](C)[C@H](OC(C)=O)[C@@H]1C [rifampin, reference compound] |  |  |  |  |  | protein synthesis (35S Cys-Met incorporation) when inhibitor included in the media [1]: abolished

Source: patent publication US20210024879A1, “BIOSYNTHETIC ACTIVITY OF THE ANAPLASMA PHAGOCYTOPHILUM AND EHRLICHIA CHAFFEENSIS PHAGOSOME IN A HOST CELL-FREE MEDIUM” (Kansas State University Research Foundation, priority 2018, published 2021)
